Earlier results in patent US20190091190A1, “COMBINATION THERAPY FOR TREATMENT OF MULTIPLE SCLEROSIS” (FWP IP ApS, priority 2012, published 2019).
Where two headings read alike, the source gives them in different places.

Tests used:
[1] = tested on: patients with RRMS; details: for reduction of 12-week confirmed disability progression as measured by EDSS: at 2 years
[2] = tested on: patients with RRM
[3] = tested on: patients with RRMS; details: for reduction of lymphocyte counts: after 1 month; for patients remaining relapse-free: 12 months
[4] = tested on: patients with EDSS scores of 0-5.5 and relapses; details: for reduction of frequency of MS relapses vs. placebo: 24 months
[5] = tested on: RRMS patients; details: 0.6 mg once-daily oral
[6] = tested on: RRMS patients
[7] = tested on: RRMS patients; details: for time to first relapse during the two years of the study: 45.6% on placebo
[8] = tested on: patients with RRMS; details: 7 mg po once-daily
[9] = tested on: RRMS patients; remark: listed apart in the source
[10] = 7 mg and 14 mg, add-on to IFN
[11] = 7 mg or 14 mg added to glatiramer acetate, vs placebo added

COC(=O)/C=C/C(=O)OC [dimethylfumarate, trans-1,2-Ethylenedicarboxylic acid dimethyl ester]
reduction of annualized relapse rate versus placebo ([1]; 240 mg po BID): 44%
reduction of new T1-hypointense lesions ([1]; 240 mg po BID): 57%
reduction of number of new or newly enlarging T2-hyperintense lesions ([1]; 240 mg po BID): 71%
reduction of proportion of patients who relapsed ([1]; 240 mg po BID): 34%
reduction of 12-week confirmed disability progression as measured by EDSS ([1]; 240 mg po BID): 21%
reduction of annualized relapse rate versus placebo ([1]; 240 mg po TID): 51%
reduction of new T1-hypointense lesions ([1]; 240 mg po TID): 65%
reduction of number of new or newly enlarging T2-hyperintense lesions ([1]; 240 mg po TID): 73%
reduction of proportion of patients who relapsed ([1]; 240 mg po TID): 45%
reduction of 12-week confirmed disability progression as measured by EDSS ([1]; 240 mg po TID): 24%
most common adverse effects ([1]; dimethylfumarate groups (BID and TID)): flushing and gastrointestinal (GI) events
reduction in annualized relapse rate versus placebo ([2]; 240 po BID): 53%
reduction in proportion of patients who relapsed at 2 years versus placebo (primary endpoint) ([2]; 240 po BID): 49%
reduction in annualized relapse rate versus placebo ([2]; 240 po TID): 48%
reduction in proportion of patients who relapsed at 2 years versus placebo (primary endpoint) ([2]; 240 po TID): 50%

CCCCCCCCc1ccc(CCC(N)(CO)CO)cc1 [fingolimod]
AE leading to the discontinuation of study medication ([3]; 0.5 mg): 5.6%
overall number of SAE ([3]; 0.5 mg): 7.0%
patients who developed macular edema ([3]; 0.5 mg): 0.5%
reduction of lymphocyte counts ([3]; 0.5 mg): 73%
1-year relapse rate lower than with Avonex ([3]; 0.5 mg/day oral): 52%
patients remaining relapse-free ([3]; 0.5 mg/day oral): 83%
AE leading to the discontinuation of study medication ([3]; 1.25 mg): 10.0%
overall number of SAE ([3]; 1.25 mg): 10.7%
patients who developed macular edema ([3]; 1.25 mg): 1%
reduction of lymphocyte counts ([3]; 1.25 mg): 77%
1-year relapse rate lower than with Avonex ([3]; 1.25 mg/day oral): 38%
patients remaining relapse-free ([3]; 1.25 mg/day oral): 80%
time to development of transient, dose-dependent reduction in heart rate ([3]; after the initial administration): ≤ 1 h
AEs that led to discontinuation of the study drug ([4]; 0.5 mg): 7.5 % of patients
lymphopenia of less than 0.2×10^9 per liter ([4]; 0.5 mg): 3.5%
reduction of frequency of MS relapses vs. placebo ([4]; 0.5 mg/day): 54%
reduction of risk of disability progression vs. placebo ([4]; 0.5 mg/day, confirmed after 3 months): 30%
reduction of risk of disability progression vs. placebo ([4]; 0.5 mg/day, confirmed after 6 months): 37%
AEs that led to discontinuation of the study drug ([4]; 1.25 mg): 14.2 % of patients
lymphopenia of less than 0.2×10^9 per liter ([4]; 1.25 mg): 5.4%
macular edema diagnosed ([4]; 1.25 mg): seven
reduction of frequency of MS relapses vs. placebo ([4]; 1.25 mg/day): 60%
reduction of risk of disability progression vs. placebo ([4]; 1.25 mg/day, confirmed after 3 months): 32%
reduction of risk of disability progression vs. placebo ([4]; 1.25 mg/day, confirmed after 6 months): 40%

CCN(C(=O)c1c(O)c2c(Cl)cccc2n(C)c1=O)c1ccccc1 [laquinimod]
reduction in ARR ([5]; 24 months, p=0.0024): 23%
reduction in progression of brain atrophy ([5]; p<0.0001): 33%
reduction in the risk of EDDS progression ([5]; p=0.0122): 36%
reduced ARR ([6]; 0.6 mg once-daily oral, pre-specified sensitivity analysis corrected for baseline imbalances): 21%
reduction in the risk of EDSS progression ([6]; 0.6 mg, corrected analysis, p=0.044): 34%
reduction in brain volume loss ([6]; 0.6 mg, corrected analysis, p=<0.0001): 28%
primary endpoint of reduction in ARR versus placebo ([6]; 0.6 mg, uncorrected, p=0.075): did not reach statistical significance

C/C(O)=C(\C#N)C(=O)Nc1ccc(C(F)(F)F)cc1 [teriflunomide, (Z)-2-cyano-3-hydroxy-but-2-enoic acid-(4′-trifluoro-methylphenyl)-amide]
reduction of annualized relapse rate (ARR) at 2 years compared to placebo ([7]; 7 mg p.o. once-daily): 31.2%
reduction of risk of disability progression ([7]; 7 mg p.o. once-daily): 24%
reduction of the burden of disease (MRI) compared to placebo ([7]; 7 mg p.o. once-daily): 39%
time to first relapse during the two years of the study ([7]; 7 mg): 53.7%
reduction of annualized relapse rate (ARR) at 2 years compared to placebo ([7]; 14 mg p.o. once-daily): 31.5%
reduction of risk of disability progression ([7]; 14 mg p.o. once-daily): 30%
reduction of the burden of disease (MRI) compared to placebo ([7]; 14 mg p.o. once-daily): 67%
time to first relapse during the two years of the study ([7]; 14 mg): 56.5%
relapse rate [8]: 0.410
annualized relapse rate compared to placebo ([9]; 7 mg p.o. once-daily): significant reduction
risk of 12 wk sustained accumulation of disability compared to placebo ([9]; 7 mg p.o. once-daily): no significant difference
reduction in annualized relapse rate compared to placebo ([9]; 14 mg p.o. once-daily): 36.3%
reduction in the risk of 12wk sustained accumulation of disability compared to placebo ([9]; 14 mg p.o. once-daily): 31.5%
reduction in annualized relapse rate [10]: no significant effect
reducing T1-Gd lesions [11]: more effective than placebo

Glatiramer acetate
reduction of new T1-hypointense lesions ([1]; 20 mg sc once-daily): 41%
reduction of number of new or newly enlarging T2-hyperintense lesions ([1]; 20 mg sc once-daily): 54%
reduction of proportion of patients who relapsed ([1]; 20 mg sc once-daily): 29%
reduction of 12-week confirmed disability progression as measured by EDSS ([1]; 20 mg sc once-daily): 7%
